Measured values published in patent US10864279B2, “Linker-drug and antibody-drug conjugate (ADC) employing the same” (priority 2016, dated 2020).

Columns and labels:
[1] = Storage test in DMSO (LC-MS); type: physicochemical; settings: 20 mM in DMSO, 0, 21, 92 and 99 days at −20° C.
Protocol: 20 mM Linker-drug 7 was stored in DMSO for 0, 21, 92 and 99 days at −20° C. LC-MS was used to analyze the purity of Linker-drug 7. The condition of LC-MS analysis was as follows.
Column: 4.6 mm×20 mm XBridge C18 column (Waters, Milford USA)
Linear gradient: 5 to 70% solvent B (100% acetonitrile with 0.1% formic acid)
Solvent A (0.1% formic acid in ddH2O)
Solvent B (100% acetonitrile with 0.1% formic acid)

[2] = system: HER2-negative cell lines MDA-MB-468; assay: Potency test, CCK-8 cell viability, MDA-MB-468; type: cell-based; settings: HER2 expression negative, 72-120 hours
Protocol: (§1) Cells were seeded in Corning CellBIND 96-well plates at densities of 6×10^3 cells/well. After incubation overnight at 37° C., 5% CO2 incubator, different concentrations of ADCs were added to the cells in serial dilutions. The cells were then incubated for 72-120 hours at 37° C., 5% CO2 incubator. After 72-120 hours, the old medium was removed and the cells were rinsed once and treated with 10-fold diluted CCK-8 reagent at 37° C. for 4 hours. The 96-well plates were put in the ELISA reader to measure the absorbance wavelength at 450 nm. Cell viability was calculated by the following equation: Cell Viability (%)=(Intensity of sample/Intensity of control)×100%. IC50 values of the ADC samples were calculated using SigmaPlot software.

[3] = system: Endometrial cancer tumor tissue, HER2-positive (+1); assay: Tumor growth inhibition test: EC PDX model; type: in vivo, NODSCID mice; settings: 10 mg/kg i.v.; Day 12, table head Day 0-60
Protocol: Endometrial cancer tumor tissue obtained from National Taiwan University was confirmed to be HER2-positive (+1). Tumor (2-3 mm diameter) was subcutaneous implanted to NODSCID mice to test the drug efficacy of ADCs in vivo. When the average tumor size was about 100 mm^3, mice were divided into groups and ADCs were intravenously injected (10 mL/kg B.W. injection volume).

[4] = system: HER2 moderate-expressing breast cancer cell lines JIMT-1 with anti-Herceptin drug resistance; assay: Potency test, CCK-8 cell viability, JIMT-1; type: cell-based; settings: for IC50: HER2 expression 2+ resistant, 72-120 hours; for In vitro selectivity MDA-MB-468/JIMT-1: ratio of IC50
Protocol: as §1

[5] = system: HER2 high-expressing breast cancer cell lines BT-474; assay: Potency test, CCK-8 cell viability, BT-474; type: cell-based; settings: for IC50: HER2 expression 3+, 72-120 hours; for In vitro selectivity MDA-MB-468/BT-474: ratio of IC50
Protocol: as §1

| Compound | storage stability (purity by LC-MS) [1] | IC50 ([2]; Table 3) | IC50 ([2]; Table 4) | TGI (%) ± SEM [3] | IC50 ([4]; Table 3) | IC50 ([4]; Table 4) | In vitro selectivity MDA-MB-468/JIMT-1 ([4]; Table 3) | In vitro selectivity MDA-MB-468/JIMT-1 ([4]; Table 4) | IC50 ([5]; Table 3) | IC50 ([5]; Table 4) | In vitro selectivity MDA-MB-468/BT-474 ([5]; Table 3) | In vitro selectivity MDA-MB-468/BT-474 ([5]; Table 4) |
| --- | --- | --- | --- | --- | --- | --- | --- | --- | --- | --- | --- | --- |
| CC[C@H](C)[C@@H]([C@@H](CC(=O)C1CCCN1[C@H](OC)[C@@H](C)C(=O)N[C@H](Cc1ccccc1)C(=O)NCCc1ccc(NC(=O)[C@@H](CCCNC(N)=O)NC(=O)[C@@H](NC(=O)COCCOCCOCCOCCNC(=O)c2ccc(NC(=O)CCl)c(NC(=O)CCl)c2)C(C)C)cc1)OC)N(C)C(=O)[C@H](NC(=O)[C@H](C(C)C)N(C)C)C(C)C (stereo partly drawn) [Linker-drug 7] | stable when dissolved in DMSO | – | – | – | – | – | – | – | – | – | – | – |
| ado-trastuzumab emtansine [Kadcyla] | – | 15.2 nM | 8.11 nM | 26.5±10.1% | 15.5 nM | 27 nM | 1 | 0.30 | 2.27 nM | 0.31 nM | 5.5 | 26.16 |
